Laboratory results reported in patent publication US9133262B2, “Somatostatin antagonists” (Ipsen Pharma S.A.S., priority 1996, dated 2015).
Positions of bridges follow the written chain, without caps; N, C: chain ends. Non-standard residues stand in square brackets, D forms with d. Residues, ends and D or L forms follow the SMILES beside them. Phe(F5) = N[C@@H](Cc1c(F)c(F)c(F)c(F)c1F)C(=O)O; Phe(4-Cl) = N[C@@H](Cc1ccc(Cl)cc1)C(=O)O; dPhe(4-Cl) = N[C@H](Cc1ccc(Cl)cc1)C(=O)O; Dip = N[C@H](C(=O)O)C(c1ccccc1)c1ccccc1; Phe(3-F) = N[C@@H](Cc1cccc(F)c1)C(=O)O; Phe(4-F) = N[C@@H](Cc1ccc(F)cc1)C(=O)O; 2Nal = N[C@@H](Cc1ccc2ccccc2c1)C(=O)O; d2Nal = N[C@H](Cc1ccc2ccccc2c1)C(=O)O; Phe(2-F) = N[C@@H](Cc1ccccc1F)C(=O)O; 3Pal = N[C@@H](Cc1cccnc1)C(=O)O; Tle = CC(C)(C)[C@H](N)C(=O)O

system: rat pituitary cells; type: cell-based; details: 3 h
Excerpt: Bioassay on the In Vitro Release of Growth Hormone
(a) Rat Pituitary Cell Dispersion
Pituitaries from adult Charles River CD male rats (Wilmington, Mass.) housed under controlled conditions were dispersed and cultured using aseptic technique by modification of previously described methods (Hoefer, M. T., et al., Mol. Cell. Endocrinol. 35:229 (1984); Ben-Jonathan, N., et al., Methods Enzymol. 103:249 (1983); and Heiman, M. L., et al., Endocrinology 116:410 (1985)). Pituitaries were removed from sacrificed rats, sectioned, and then placed into a siliconized, liquid scintillation vial containing 2 ml 0.2% trypsin (Worthington Biochemicals, Freehold, N.J.) in sterile-filtered Krebs-Ringer bicarbonate buffer supplemented with 1% bovine serum albumin, 14 mM glucose, modified Eagle medium (MEM) vitamin solution, and MEM amino acids (Gibco Laboratories, Grand Island, N.Y.) (KRBGA). All glassware was siliconized as described by Sayers, et al., Endocrinology 88:1063 (1971). The fragments were incubated in a water bath for 35 min at 37° C. with agitation. The vial contents then were poured into a scintillation vial containing 2 ml 0.1% DNase (Sigma Chemical Co., St. Louis, Mo.) in KRBGA and incubated for 2 min at 37° C. with agitation. After incubation, the tissue was decanted into a 15 ml centrifuge tube and allowed to settle. Medium was discarded, and pituitary sections were washed 3 times with 1 ml fresh-KRBGA. The cells were then dispersed in 2 ml 0.05% LBI (lima bean trypsin inhibitor, Worthington Biochemicals) by gently drawing the fragments into and expelling them out of a siliconized, fire polished Pasteur pipette. Dispersed cells were then filtered through a 630 μm diameter Nylon mesh (Tetko, Elmsford, N.Y.) into a fresh 15 ml centrifuge tube. An additional 2 ml of 0.05% LBI solution was used to rinse the first tube and was transferred to the second tube with filtering.
The dispersed cells were then further diluted with approximately 15 ml sterile-filtered Dulbecco's modified Eagle medium (GIBCO), which was supplemented with 2.5% fetal calf serum (GIBCO), 3% horse serum (GIBCO), 10% fresh rat serum (stored on ice for no longer than 1 hr) from the pituitary donors, 1% MEM non-essential amino acids (GIBCO), and gentamycin (10 ng/ml; Sigma) and nystatin (10,000 U/ml; GIBCO). The cells were poured into a 50 ml round-bottomed glass extraction flask with a large diameter opening and then randomly plated at a density of approximately 200,000 cells per well (Co-star cluster 24; Rochester Scientific Co., Rochester, N.Y.). The plated cells were maintained in the above Dulbecco's medium in a humidified atmosphere of 95% air and 5% CO2 at 37° C. for 4-5 days.
(c) Experimental Incubation and IC50 Determination
In preparation for a hormone challenge, the cells were washed 3 times with medium 199 (GIBCO) to remove old medium and floating cells. Each treatment well contained a total volume of 1 ml medium 199 containing 1% BSA (fraction V; Sigma) with treatments as described below. Each antagonist candidate was tested using a single 24-well cell culture plate. Each treatment was performed in triplicate. Each plate contained 8 treatment groups: one 1 nM growth hormone releasing factor (GRF) (1-29)NH2-stimulated control group; one 1 nM somatostatin-inhibited control group in the presence of 1 nM GRF(1-29)NH2; and 6 doses of a given antagonist in the presence of both 1 nM SRIF and 1 nM GRF per plate. After 3 hrs at 37° C. in a air/carbon dioxide atmosphere (95/5%), the medium was removed and stored at −20° C. until radioimmunoassayed for growth hormone content. IC50's of each antagonist versus 1 nM SRIF were calculated using a computer program (SigmaPlot, Jandel Scientific, San Rafael, Calif.) with the maximum response constrained to the value of the 1 nM GRF(1-29)NH2-stimulated control.

SMILES | IC50
CC(C)[C@@H]1NC(=O)[C@H](CCCCN)NC(=O)[C@@H](Cc2c[nH]c3ccccc23)NC(=O)[C@H](Cc2cccnc2)NC(=O)[C@H](NC(=O)[C@@H](N)Cc2ccc3ccccc3c2)CSSC[C@@H](C(=O)N[C@@H](Cc2ccc3ccccc3c2)C(N)=O)NC1=O [Analog No. 3, H2-β-Nal-D-Cys-Pal-D-Trp-Lys-Val-Cys-β-Nal-NH2] (H-[2Nal][dC][3Pal][dW]KVC[2Nal]-NH2; disulfide 2-7) | 10 nM
C[C@@H](O)[C@H](NC(=O)[C@@H]1CSSC[C@@H](NC(=O)[C@@H](N)Cc2ccccc2)C(=O)N[C@@H](Cc2cccnc2)C(=O)N[C@H](Cc2c[nH]c3ccccc23)C(=O)N[C@@H](CCCCN)C(=O)N[C@@H]([C@@H](C)O)C(=O)N1)C(N)=O [Analog No. 6, H2-Phe-D-Cys-Pal-D-Trp-Lys-Thr-Cys-Thr-NH2] (H-F[dC][3Pal][dW]KTCT-NH2; disulfide 2-7) | 900 nM
CC(C)(C)[C@@H]1NC(=O)[C@H](CCCCN)NC(=O)[C@@H](Cc2c[nH]c3ccccc23)NC(=O)[C@H](Cc2cccnc2)NC(=O)[C@H](NC(=O)[C@H](N)Cc2ccc(Cl)cc2)CSSC[C@@H](C(=O)N[C@@H](Cc2ccc(Cl)cc2)C(N)=O)NC1=O [Analog No. 7, H2-D-p-Cl-Phe-D-Cys-Pal-D-Trp-Lys-Tle-Cys-p-Cl-Phe-NH2] (H-[dPhe(4-Cl)][dC][3Pal][dW]K[Tle]C[Phe(4-Cl)]-NH2; disulfide 2-7) | 71 nM
CC(C)[C@H](NC(=O)[C@H](CCCCN)NC(=O)[C@@H](Cc1c[nH]c2ccccc12)NC(=O)[C@H](Cc1ccc(O)cc1)NC(=O)[C@@H](Cc1ccc(Cl)cc1)NC(=O)[C@H](N)Cc1ccc2ccccc2c1)C(=O)N[C@@H](Cc1ccccc1)C(=O)N[C@H](C(N)=O)[C@@H](C)O [Analog No. 8, H2-D-β-Nal-D-Cpa-Tyr-D-Trp-Lys-Val-Phe-Thr-NH2] (H-[d2Nal][dPhe(4-Cl)]Y[dW]KVFT-NH2) | 3960 nM
CC(C)[C@@H]1NC(=O)[C@H](CCCCN)NC(=O)[C@@H](Cc2c[nH]c3ccccc23)NC(=O)[C@H](Cc2cccnc2)NC(=O)[C@H](NC(=O)[C@@H](N)C(c2ccccc2)c2ccccc2)CSSC[C@@H](C(=O)N[C@H](C(N)=O)C(c2ccccc2)c2ccccc2)NC1=O [Analog No. 10, H2-Dip-D-Cys-Pal-D-Trp-Lys-Val-Cys-Dip-NH2] (H-[Dip][dC][3Pal][dW]KVC[Dip]-NH2; disulfide 2-7) | 620 nM
CC(C)[C@@H]1NC(=O)[C@H](CCCCN)NC(=O)[C@@H](Cc2c[nH]c3ccccc23)NC(=O)[C@H](Cc2c[nH]cn2)NC(=O)[C@H](NC(=O)[C@@H](N)Cc2c(F)c(F)c(F)c(F)c2F)CSSC[C@@H](C(=O)N[C@@H](Cc2c(F)c(F)c(F)c(F)c2F)C(N)=O)NC1=O [Analog No. 11, H2—F5-Phe-D-Cys-His-D-Trp-Lys-Val-Cys-F5-Phe-NH2] (H-[Phe(F5)][dC]H[dW]KVC[Phe(F5)]-NH2; disulfide 2-7) | 720 nM
CC(C)[C@@H]1NC(=O)[C@H](CCCCN)NC(=O)[C@@H](Cc2c[nH]c3ccccc23)NC(=O)[C@H](Cc2cccnc2)NC(=O)[C@H](NC(=O)[C@@H](N)Cc2ccc(F)cc2)CSSC[C@@H](C(=O)N[C@@H](Cc2ccc(F)cc2)C(N)=O)NC1=O [Analog No. 12, H2-p-F-Phe-D-Cys-Pal-D-Trp-Lys-Val-Cys-p-F-Phe-NH2] (H-[Phe(4-F)][dC][3Pal][dW]KVC[Phe(4-F)]-NH2; disulfide 2-7) | 56 nM
CC(C)[C@@H]1NC(=O)[C@H](CCCCN)NC(=O)[C@@H](Cc2c[nH]c3ccccc23)NC(=O)[C@H](Cc2cccnc2)NC(=O)[C@H](NC(=O)[C@@H](N)C(c2ccccc2)c2ccccc2)CSSC[C@@H](C(=O)N[C@@H](Cc2ccc3ccccc3c2)C(N)=O)NC1=O [Analog No. 13, H2-Dip-D-Cys-Pal-D-Trp-Lys-Val-Cys-β-Nal-NH2] (H-[Dip][dC][3Pal][dW]KVC[2Nal]-NH2; disulfide 2-7) | 110 nM

Other lines, results leading:

IC50 | SMILES
3030 nM | CC(C)[C@H](NC(=O)[C@H](CCCCN)NC(=O)[C@@H](Cc1c[nH]c2ccccc12)NC(=O)[C@H](Cc1ccc(O)cc1)NC(=O)[C@@H](Cc1ccc(Cl)cc1)NC(=O)[C@@H](N)Cc1ccc2ccccc2c1)C(=O)N[C@@H](Cc1ccccc1)C(=O)N[C@H](C(N)=O)[C@@H](C)O [Analog No. 1, H2-β-Nal-D-Cpa-Tyr-D-Trp-Lys-Val-Phe-Thr-NH2] (H-[2Nal][dPhe(4-Cl)]Y[dW]KVFT-NH2)
30 nM | CC(C)[C@@H]1NC(=O)[C@H](CCCCN)NC(=O)[C@@H](Cc2c[nH]c3ccccc23)NC(=O)[C@H](Cc2cccnc2)NC(=O)[C@H](NC(=O)[C@@H](N)Cc2ccccc2)CSSC[C@@H](C(=O)N[C@@H](Cc2ccc3ccccc3c2)C(N)=O)NC1=O [Analog No. 4, H2-Phe-D-Cys-Pal-D-Trp-Lys-Val-Cys-β-Nal-NH2] (H-F[dC][3Pal][dW]KVC[2Nal]-NH2; disulfide 2-7)
60 nM | CC(=O)N[C@@H](Cc1ccc2ccccc2c1)C(=O)N[C@@H]1CSSC[C@@H](C(=O)N[C@@H](Cc2ccc3ccccc3c2)C(N)=O)NC(=O)[C@H](C(C)C)NC(=O)[C@H](CCCCN)NC(=O)[C@@H](Cc2c[nH]c3ccccc23)NC(=O)[C@H](Cc2ccc(O)cc2)NC1=O [Analog No. 5, (H)(CH3CO)-β-Nal-D-Cys-Tyr-D-Trp-Lys-Val-Cys-β-Nal-NH2] (Ac-[2Nal][dC]Y[dW]KVC[2Nal]-NH2; disulfide 2-7)
110 nM | CC(C)[C@@H]1NC(=O)[C@H](CCCCN)NC(=O)[C@@H](Cc2c[nH]c3ccccc23)NC(=O)[C@H](Cc2cccnc2)NC(=O)[C@H](NC(=O)[C@@H](N)Cc2cccc(F)c2)CSSC[C@@H](C(=O)N[C@@H](Cc2cccc(F)c2)C(N)=O)NC1=O [Analog No. 14, H2-m-F-Phe-D-Cys-Pal-D-Trp-Lys-Val-Cys-m-F-Phe-NH2] (H-[Phe(3-F)][dC][3Pal][dW]KVC[Phe(3-F)]-NH2; disulfide 2-7)
140 nM | CC(C)[C@@H]1NC(=O)[C@H](CCCCN)NC(=O)[C@@H](Cc2c[nH]c3ccccc23)NC(=O)[C@H](Cc2cccnc2)NC(=O)[C@H](NC(=O)[C@@H](N)Cc2ccccc2F)CSSC[C@@H](C(=O)N[C@@H](Cc2ccccc2F)C(N)=O)NC1=O [Analog No. 15, H2-o-F-Phe-D-Cys-Pal-D-Trp-Lys-Val-Cys-o-F-Phe-NH2] (H-[Phe(2-F)][dC][3Pal][dW]KVC[Phe(2-F)]-NH2; disulfide 2-7)
820 nM | CC(C)[C@@H]1NC(=O)[C@H](CCCCN)NC(=O)[C@@H](Cc2c[nH]c3ccccc23)NC(=O)[C@H](Cc2cccnc2)NC(=O)[C@H](NC(=O)[C@@H](N)Cc2c(F)c(F)c(F)c(F)c2F)CSSC[C@@H](C(=O)N[C@@H](Cc2c(F)c(F)c(F)c(F)c2F)C(N)=O)NC1=O [Analog No. 16, H2—F5-Phe-D-Cys-Pal-D-Trp-Lys-Val-Cys-F5-Phe-NH2] (H-[Phe(F5)][dC][3Pal][dW]KVC[Phe(F5)]-NH2; disulfide 2-7)

same assay, conditions: cultured rat pituitary cells; 1 nM SRIF and 1 nM GRF(1-29)NH2; 3 hrs at 37° C.; growth hormone by radioimmunoassay; read-out: IC50 of antagonist versus 1 nM SRIF (growth hormone release)

SMILES | IC50
CC(C)[C@@H]1NC(=O)[C@H](CCCCN)NC(=O)[C@@H](Cc2c[nH]c3ccccc23)NC(=O)[C@H](Cc2ccc(O)cc2)NC(=O)[C@H](NC(=O)[C@@H](N)Cc2ccc3ccccc3c2)CSSC[C@@H](C(=O)N[C@@H](Cc2ccc3ccccc3c2)C(N)=O)NC1=O [Analog No. 2, H2-β-Nal-D-Cys-Tyr-D-Trp-Lys-Val-Cys-β-Nal-NH2] (H-[2Nal][dC]Y[dW]KVC[2Nal]-NH2; disulfide 2-7) | 40 nM
CC(C)[C@@H]1NC(=O)[C@H](CCCCN)NC(=O)[C@@H](Cc2c[nH]c3ccccc23)NC(=O)[C@H](Cc2ccc(O)cc2)NC(=O)[C@H](NC(=O)[C@H](N)Cc2ccc3ccccc3c2)CSSC[C@@H](C(=O)N[C@@H](Cc2ccc3ccccc3c2)C(N)=O)NC1=O [Analog No. 9, H2-D-β-Nal-D-Cys-Tyr-D-Trp-Lys-Val-Cys-β-Nal-NH2] (H-[d2Nal][dC]Y[dW]KVC[2Nal]-NH2; disulfide 2-7) | 1360 nM
